From patent US20220168431A1, “METHODS OF TREATING CANCER USING TRIMETAZIDINE-BASED COMPOUNDS” (IMBRIA PHARMACEUTICALS, INC., priority 2019, published 2022)

Legend:
Settings in all cases: 10 μM CV-8814
Adrenergic α1A = Adrenergic α1A (Rattus norvegicus, UniProt P43140); format: binding
Chemokine CXCR2 (IL-8RB) = Chemokine CXCR2 (IL-8RB) (Homo sapiens, UniProt P25025); format: binding
Dopamine D2S = Dopamine D2S (Homo sapiens, UniProt P14416); format: binding
Angiotensin AT1 = Angiotensin AT1 (Homo sapiens, UniProt P30556); format: binding
Sequence of Angiotensin AT1 (P30556 whole entry): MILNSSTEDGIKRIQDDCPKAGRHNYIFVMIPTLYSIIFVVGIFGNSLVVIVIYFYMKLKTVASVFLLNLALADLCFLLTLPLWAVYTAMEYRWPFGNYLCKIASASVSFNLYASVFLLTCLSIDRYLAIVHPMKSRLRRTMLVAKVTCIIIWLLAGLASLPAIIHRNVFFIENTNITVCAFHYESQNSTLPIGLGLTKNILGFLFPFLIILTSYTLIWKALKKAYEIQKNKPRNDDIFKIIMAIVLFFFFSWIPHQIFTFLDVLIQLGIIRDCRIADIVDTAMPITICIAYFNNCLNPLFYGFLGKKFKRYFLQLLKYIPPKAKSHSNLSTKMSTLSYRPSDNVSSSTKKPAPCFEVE

Adrenergic β1 = Adrenergic β1 (Homo sapiens, UniProt P08588); format: binding
Adrenergic β2 = Adrenergic β2 (Homo sapiens, UniProt P07550); format: binding
Glutamate, NMDA, Glycine = Glutamate, NMDA, Glycine (Rattus norvegicus, UniProt P35439); format: binding
[1] = biological target: Protein Tyrosine Kinase, Insulin Receptor (Homo sapiens, UniProt P06213); format: biochemical
Adrenergic α2A = Adrenergic α2A (Homo sapiens, UniProt P08913); format: binding
Neuropeptide Y Y1 = Neuropeptide Y Y1 (Homo sapiens, UniProt P25929); format: binding
[2] = biological target: Transporter, Serotonin (5-Hydroxytryptamine) (SERT) (Homo sapiens, UniProt P31645); format: binding
Sequence of Transporter, Serotonin (5-Hydroxytryptamine) (SERT) (P31645 whole entry): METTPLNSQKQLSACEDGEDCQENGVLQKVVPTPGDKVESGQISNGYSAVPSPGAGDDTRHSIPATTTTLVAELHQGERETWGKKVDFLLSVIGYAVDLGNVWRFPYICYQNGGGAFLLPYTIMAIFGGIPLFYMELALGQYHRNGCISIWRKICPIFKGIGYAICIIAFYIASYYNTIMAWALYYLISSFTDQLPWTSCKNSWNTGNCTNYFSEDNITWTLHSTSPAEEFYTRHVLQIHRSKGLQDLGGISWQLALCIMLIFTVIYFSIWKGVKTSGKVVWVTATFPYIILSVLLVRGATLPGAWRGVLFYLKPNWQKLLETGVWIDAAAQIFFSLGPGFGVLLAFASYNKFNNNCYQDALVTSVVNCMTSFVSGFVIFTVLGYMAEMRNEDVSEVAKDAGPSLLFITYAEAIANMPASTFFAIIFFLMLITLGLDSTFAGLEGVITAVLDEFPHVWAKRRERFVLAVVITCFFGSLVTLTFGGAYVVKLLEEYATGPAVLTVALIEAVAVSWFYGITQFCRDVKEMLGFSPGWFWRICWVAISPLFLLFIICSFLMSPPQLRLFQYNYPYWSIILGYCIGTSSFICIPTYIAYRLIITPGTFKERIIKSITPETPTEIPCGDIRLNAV

[3] = biological target: Serotonin (5-Hydroxytryptamine) 5-HT1A (Homo sapiens, UniProt P08908); format: binding
Sequence of Serotonin (5-Hydroxytryptamine) 5-HT1A (P08908 whole entry): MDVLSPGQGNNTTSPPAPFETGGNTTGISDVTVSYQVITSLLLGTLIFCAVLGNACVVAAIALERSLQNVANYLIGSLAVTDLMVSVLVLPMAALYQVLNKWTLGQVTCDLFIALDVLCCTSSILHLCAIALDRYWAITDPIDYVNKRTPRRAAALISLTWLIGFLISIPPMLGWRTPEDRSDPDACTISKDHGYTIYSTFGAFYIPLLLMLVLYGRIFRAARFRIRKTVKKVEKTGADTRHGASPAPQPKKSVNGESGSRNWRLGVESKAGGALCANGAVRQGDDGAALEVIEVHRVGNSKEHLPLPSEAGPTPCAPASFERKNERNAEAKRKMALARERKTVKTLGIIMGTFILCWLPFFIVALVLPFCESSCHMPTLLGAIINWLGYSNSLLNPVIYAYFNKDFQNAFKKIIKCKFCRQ

Opiate δ1 (OP1, DOP) = Opiate δ1 (OP1, DOP) (Homo sapiens, UniProt P41143); format: binding
Sequence of Opiate δ1 (OP1, DOP) (P41143 whole entry): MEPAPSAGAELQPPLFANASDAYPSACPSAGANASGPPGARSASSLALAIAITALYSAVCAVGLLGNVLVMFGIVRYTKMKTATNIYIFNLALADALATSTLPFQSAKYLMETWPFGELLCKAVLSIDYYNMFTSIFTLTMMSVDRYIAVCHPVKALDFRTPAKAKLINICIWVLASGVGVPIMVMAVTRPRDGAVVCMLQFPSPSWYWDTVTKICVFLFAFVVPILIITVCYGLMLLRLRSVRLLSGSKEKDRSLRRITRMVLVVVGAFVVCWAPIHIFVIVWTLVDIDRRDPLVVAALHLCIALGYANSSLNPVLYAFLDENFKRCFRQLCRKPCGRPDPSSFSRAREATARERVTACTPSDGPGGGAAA

Histamine H2 = Histamine H2 (Homo sapiens, UniProt P25021); format: binding
Monoamine Oxidase MAO-A = Monoamine Oxidase MAO-A (Homo sapiens, UniProt P21397); format: biochemical
Muscarinic M3 = Muscarinic M3 (Homo sapiens, UniProt P20309); format: binding
Androgen (Testosterone) = Androgen (Testosterone) (Homo sapiens, UniProt P10275); format: binding
Sequence of Androgen (Testosterone) (P10275 whole entry): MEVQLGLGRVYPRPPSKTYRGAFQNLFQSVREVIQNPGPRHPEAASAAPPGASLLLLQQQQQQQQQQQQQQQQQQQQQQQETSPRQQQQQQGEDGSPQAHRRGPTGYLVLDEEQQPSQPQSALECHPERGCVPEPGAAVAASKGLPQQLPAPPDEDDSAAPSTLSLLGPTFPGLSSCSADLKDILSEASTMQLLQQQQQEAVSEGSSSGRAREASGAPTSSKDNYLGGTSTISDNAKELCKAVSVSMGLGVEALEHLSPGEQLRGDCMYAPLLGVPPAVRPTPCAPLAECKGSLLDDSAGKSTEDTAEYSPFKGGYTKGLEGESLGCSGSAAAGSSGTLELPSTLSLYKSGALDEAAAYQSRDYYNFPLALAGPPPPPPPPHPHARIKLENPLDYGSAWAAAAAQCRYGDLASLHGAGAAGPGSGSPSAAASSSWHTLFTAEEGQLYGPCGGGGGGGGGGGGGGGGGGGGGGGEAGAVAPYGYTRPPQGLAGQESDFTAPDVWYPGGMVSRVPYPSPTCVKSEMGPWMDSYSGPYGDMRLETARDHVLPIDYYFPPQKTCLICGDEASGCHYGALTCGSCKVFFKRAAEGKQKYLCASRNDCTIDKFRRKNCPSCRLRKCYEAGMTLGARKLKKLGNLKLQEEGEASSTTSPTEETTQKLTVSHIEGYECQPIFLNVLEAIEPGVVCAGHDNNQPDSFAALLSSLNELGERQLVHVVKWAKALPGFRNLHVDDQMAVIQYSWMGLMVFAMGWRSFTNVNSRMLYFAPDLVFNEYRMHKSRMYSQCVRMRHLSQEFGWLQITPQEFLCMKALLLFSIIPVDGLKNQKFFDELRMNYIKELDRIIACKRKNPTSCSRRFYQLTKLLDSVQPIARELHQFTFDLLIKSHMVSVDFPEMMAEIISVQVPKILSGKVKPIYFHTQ

Muscarinic M4 = Muscarinic M4 (Homo sapiens, UniProt P08173); format: binding
Bradykinin B2 = Bradykinin B2 (Homo sapiens, UniProt P30411); format: binding
Sequence of Bradykinin B2 (P30411 whole entry): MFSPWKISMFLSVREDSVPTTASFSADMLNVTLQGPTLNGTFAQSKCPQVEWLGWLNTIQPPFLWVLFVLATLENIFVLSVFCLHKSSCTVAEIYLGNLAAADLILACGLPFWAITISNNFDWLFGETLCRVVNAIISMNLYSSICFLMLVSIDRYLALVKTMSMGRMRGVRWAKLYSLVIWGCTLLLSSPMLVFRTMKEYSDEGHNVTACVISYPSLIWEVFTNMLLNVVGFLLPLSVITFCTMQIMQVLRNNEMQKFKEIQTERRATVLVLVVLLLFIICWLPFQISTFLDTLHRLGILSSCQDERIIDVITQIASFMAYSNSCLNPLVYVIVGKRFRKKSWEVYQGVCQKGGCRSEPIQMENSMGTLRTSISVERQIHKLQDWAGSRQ

Endothelin ETA = Endothelin ETA (Homo sapiens, UniProt P25101); format: binding
Muscarinic M2 = Muscarinic M2 (Homo sapiens, UniProt P08172); format: binding
[4] = biological target: Platelet Activating Factor (PAF) (Homo sapiens, UniProt P25105); format: binding
Sequence of Platelet Activating Factor (PAF) (P25105 whole entry): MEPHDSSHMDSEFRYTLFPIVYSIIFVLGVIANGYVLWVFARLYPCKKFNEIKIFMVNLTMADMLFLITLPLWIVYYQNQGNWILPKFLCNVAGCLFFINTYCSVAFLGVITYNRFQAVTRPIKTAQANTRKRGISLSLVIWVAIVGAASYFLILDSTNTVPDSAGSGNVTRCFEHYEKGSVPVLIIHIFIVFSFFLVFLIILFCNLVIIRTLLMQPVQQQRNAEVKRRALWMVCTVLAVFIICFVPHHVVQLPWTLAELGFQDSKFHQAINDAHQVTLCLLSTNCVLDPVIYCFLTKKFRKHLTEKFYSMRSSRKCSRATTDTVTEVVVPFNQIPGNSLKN

Tachykinin NK1 = Tachykinin NK1 (Homo sapiens, UniProt P25103); format: binding
Sequence of Tachykinin NK1 (P25103 whole entry): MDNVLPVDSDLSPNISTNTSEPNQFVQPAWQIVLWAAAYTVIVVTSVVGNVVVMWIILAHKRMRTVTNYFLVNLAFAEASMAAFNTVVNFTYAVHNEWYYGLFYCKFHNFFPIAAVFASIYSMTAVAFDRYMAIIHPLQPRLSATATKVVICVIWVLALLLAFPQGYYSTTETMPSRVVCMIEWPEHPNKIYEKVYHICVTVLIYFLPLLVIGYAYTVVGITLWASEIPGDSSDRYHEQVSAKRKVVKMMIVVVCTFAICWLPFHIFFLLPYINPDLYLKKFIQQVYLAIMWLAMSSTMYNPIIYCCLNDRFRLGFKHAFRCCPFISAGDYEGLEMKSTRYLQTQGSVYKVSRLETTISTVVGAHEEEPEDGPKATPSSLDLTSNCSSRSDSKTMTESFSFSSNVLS

Dopamine D1 = Dopamine D1 (Homo sapiens, UniProt P21728); format: binding
Sequence of Dopamine D1 (P21728 whole entry): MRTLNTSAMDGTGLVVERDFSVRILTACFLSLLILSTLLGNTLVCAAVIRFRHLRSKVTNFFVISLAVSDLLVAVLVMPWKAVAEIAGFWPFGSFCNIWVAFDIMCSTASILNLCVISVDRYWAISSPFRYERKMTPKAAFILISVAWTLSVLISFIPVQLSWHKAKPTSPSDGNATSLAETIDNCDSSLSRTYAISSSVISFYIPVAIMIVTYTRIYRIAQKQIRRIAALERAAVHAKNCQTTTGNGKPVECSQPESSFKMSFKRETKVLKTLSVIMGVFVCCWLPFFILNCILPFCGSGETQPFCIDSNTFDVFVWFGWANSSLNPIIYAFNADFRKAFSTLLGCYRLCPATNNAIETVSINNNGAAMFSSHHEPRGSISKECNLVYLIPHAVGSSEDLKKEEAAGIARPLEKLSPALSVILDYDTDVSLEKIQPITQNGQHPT

Estrogen ERα = Estrogen ERα (Homo sapiens, UniProt P03372); format: binding
Sequence of Estrogen ERα (P03372 whole entry): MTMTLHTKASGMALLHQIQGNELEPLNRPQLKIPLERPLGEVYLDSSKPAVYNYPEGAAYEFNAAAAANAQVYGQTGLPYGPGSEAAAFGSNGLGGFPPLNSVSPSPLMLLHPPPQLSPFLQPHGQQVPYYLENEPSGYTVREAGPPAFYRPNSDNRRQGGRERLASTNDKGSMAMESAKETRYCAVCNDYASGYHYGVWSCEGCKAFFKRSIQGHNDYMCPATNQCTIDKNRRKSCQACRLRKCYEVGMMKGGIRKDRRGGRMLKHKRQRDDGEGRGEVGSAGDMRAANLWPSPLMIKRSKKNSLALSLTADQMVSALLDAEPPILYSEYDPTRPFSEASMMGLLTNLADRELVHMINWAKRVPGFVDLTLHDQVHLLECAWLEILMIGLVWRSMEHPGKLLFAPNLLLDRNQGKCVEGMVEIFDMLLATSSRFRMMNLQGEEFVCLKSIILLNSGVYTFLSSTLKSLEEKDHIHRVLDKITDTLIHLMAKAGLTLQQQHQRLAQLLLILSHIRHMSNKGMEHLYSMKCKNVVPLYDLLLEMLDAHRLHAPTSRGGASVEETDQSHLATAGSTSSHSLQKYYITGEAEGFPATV

Measured: inhibition at 10 µM

COc1ccc(CN2CCN(CCO)CC2)c(OC)c1OC [CV-8814, 2-(4-(2,3,4-trimethoxybenzyl)piperazin-1-yl)ethan-1-01]
< 50%: all assays above
